ChEMBL document CHEMBL1687943, “Synthesis of new glycyrrhetinic acid derived ring A azepanone, 29-urea and 29-hydroxamic acid derivatives as selective 11β-hydroxysteroid dehydrogenase 2 inhibitors” (Bioorg Med Chem, 2011)
pIC50: −log10 of the molar value.

Assays:
[1] = target: T1, 11-beta-hydroxysteroid dehydrogenase 1 (Homo sapiens, UniProt P28845); settings: HEK293, at 200 nM
Target sequence in this assay (P28845 whole entry, looked up): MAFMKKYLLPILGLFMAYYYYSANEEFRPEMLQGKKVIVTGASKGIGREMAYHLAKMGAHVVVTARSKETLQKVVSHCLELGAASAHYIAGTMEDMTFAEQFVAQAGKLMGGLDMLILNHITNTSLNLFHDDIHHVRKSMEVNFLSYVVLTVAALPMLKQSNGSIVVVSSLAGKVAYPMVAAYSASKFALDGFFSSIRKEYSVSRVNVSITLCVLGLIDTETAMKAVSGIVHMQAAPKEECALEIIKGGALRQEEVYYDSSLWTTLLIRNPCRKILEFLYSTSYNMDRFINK
Description: Inhibition of human recombinant 11beta-HSD1 expressed in HEK293 cells assessed as residual conversion of [1,2-[3H]cortisone to cortisol at 200 nM after 10 mins by scintillation counting

[2] = target: T1, 11-beta-hydroxysteroid dehydrogenase 1; experiment: Inhibition of human recombinant 11beta-HSD1 expressed in HEK293 cells assessed as conversion of [1,2-[3H]cortisone to cortisol after 10 mins by scintillation counting; format: cell-based
Target sequence in this assay (P28845 whole entry): as the sequence (P28845 whole entry, looked up) above

[3] = target: T2, 11-beta-hydroxysteroid dehydrogenase type 2 (Homo sapiens) (UniProt P80365); settings: HEK293, at 200 nM
T2 sequence (whole entry): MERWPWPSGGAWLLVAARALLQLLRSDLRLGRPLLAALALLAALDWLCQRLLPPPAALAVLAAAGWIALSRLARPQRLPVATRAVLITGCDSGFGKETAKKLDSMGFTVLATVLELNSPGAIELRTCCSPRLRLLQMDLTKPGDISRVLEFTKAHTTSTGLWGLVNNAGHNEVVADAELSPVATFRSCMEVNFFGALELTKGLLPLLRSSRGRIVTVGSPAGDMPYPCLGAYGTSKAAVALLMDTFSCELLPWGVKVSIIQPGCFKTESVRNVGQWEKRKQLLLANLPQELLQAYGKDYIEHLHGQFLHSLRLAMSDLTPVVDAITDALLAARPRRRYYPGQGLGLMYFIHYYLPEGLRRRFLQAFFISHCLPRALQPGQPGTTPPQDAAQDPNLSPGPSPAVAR
Description: Inhibition of human 11beta-HSD2 expressed in HEK293 cells assessed as residual conversion of [1,2,6,7-[3H]cortisol to cortisone at 200 nM after 10 mins by scintillation counting

[4] = target: T3, 11-beta-hydroxysteroid dehydrogenase type 2 (Homo sapiens, UniProt P80365); experiment: Inhibition of human 11beta-HSD2 expressed in HEK293 cells assessed as conversion of [1,2,6,7-[3H]cortisol to cortisone after 10 mins by scintillation counting; format: cell-based
T3 sequence (P80365 whole entry): T2 sequence (whole entry)

[5] = target: T1, 11-beta-hydroxysteroid dehydrogenase 1; settings: HEK293, at 1000 nM
Target sequence in this assay (P28845 whole entry, looked up): as the sequence (P28845 whole entry, looked up) above
Description: Inhibition of human recombinant 11beta-HSD1 expressed in HEK293 cells assessed as residual conversion of [1,2-[3H]cortisone to cortisol at 1000 nM after 10 mins by scintillation counting

[6] = target: T2, 11-beta-hydroxysteroid dehydrogenase type 2 (Homo sapiens); settings: HEK293, at 1000 nM
Description: Inhibition of human 11beta-HSD2 expressed in HEK293 cells assessed as residual conversion of [1,2,6,7-[3H]cortisol to cortisone at 1000 nM after 10 mins by scintillation counting

[7] = target: T1, 11-beta-hydroxysteroid dehydrogenase 1; settings: HEK293, at 1 µM
Target sequence in this assay (P28845 whole entry, looked up): as the sequence (P28845 whole entry, looked up) above
Description: Inhibition of human recombinant 11beta-HSD1 expressed in HEK293 cells assessed as conversion of [1,2-[3H]cortisone to cortisol at 1 uM after 10 mins by scintillation counting

Row | SMILES | residual activity [1] | residual activity [3] | residual activity [5] | other results
1 | CC1(C)C(=O)CC[C@]2(C)[C@H]3C(=O)C=C4[C@@H]5C[C@@](C)(NC(N)=O)CC[C@]5(C)CC[C@@]4(C)[C@]3(C)CC[C@@H]12 |  |  |  | pIC50 [2]: < 5.00
2 | CC(=O)O[C@H]1CC[C@]2(C)[C@H]3C(=O)C=C4[C@@H]5C[C@@](C)(NC(=O)NO)CC[C@]5(C)CC[C@@]4(C)[C@]3(C)CC[C@H]2C1(C)C | 92% | 34% |  | 
3 | CC1(C)/C(=N/O)CC[C@]2(C)[C@H]3C(=O)C=C4[C@@H]5C[C@@](C)(C(=O)O)CC[C@]5(C)CC[C@@]4(C)[C@]3(C)CC[C@@H]12 |  |  |  | residual activity [6]: 1%
4 | CN(O)C(=O)[C@@]1(C)CC[C@]2(C)CC[C@]3(C)C(=CC(=O)[C@@H]4[C@@]5(C)CCC(=O)NC(C)(C)[C@@H]5CC[C@]43C)[C@@H]2C1 | 73% |  |  | pIC50 [2]: < 4.40
5 | CC1(C)[C@@H](O)CC[C@]2(C)[C@H]3C(=O)C=C4[C@@H]5C[C@@](C)(C(=O)O)CC[C@]5(C)CC[C@@]4(C)[C@]3(C)CC[C@@H]12 |  |  | 16% | inhibition [7]: 83.9%
6 | CC1(C)[C@@H](O)CC[C@]2(C)C3=CC(=O)[C@H]4[C@@H]5C[C@@](C)(C(=O)O)CC[C@]5(C)CC[C@@]4(C)[C@]3(C)CC[C@@H]12 | 77% | 85% |  | 
7 | CC1(C)[C@@H](OC(=O)CCC(=O)O)CC[C@]2(C)[C@H]3C(=O)C=C4[C@@H]5C[C@@](C)(C(=O)O)CC[C@]5(C)CC[C@@]4(C)[C@]3(C)CC[C@@H]12 |  |  | 12% | 
8 | CC1(C)C(=O)CC[C@]2(C)[C@H]3C(=O)C=C4[C@@H]5C[C@@](C)(C(=O)O)CC[C@]5(C)CC[C@@]4(C)[C@]3(C)CC[C@@H]12 |  |  | 36% | 
9 | CC1(C)NC(=O)CC[C@]2(C)[C@H]3C(=O)C=C4[C@@H]5C[C@@](C)(C(=O)O)CC[C@]5(C)CC[C@@]4(C)[C@]3(C)CC[C@@H]12 |  |  | 43% | residual activity [6]: 21%

The next lines start with results.

Row | residual activity [1] | residual activity [3] | residual activity [5] | SMILES | other results
10 | 81% | 24% |  | CC1(C)[C@@H](Oc2noc(=O)[nH]2)CC[C@]2(C)[C@H]3C(=O)C=C4[C@@H]5C[C@@](C)(NC(N)=O)CC[C@]5(C)CC[C@@]4(C)[C@]3(C)CC[C@@H]12 | pIC50 [2]: < 4.40; pIC50 [4]: < 5.40
11 | 97% | 38% |  | CC(=O)O[C@H]1CC[C@]2(C)[C@H]3C(=O)C=C4[C@@H]5C[C@@](C)(NC(=O)NCCO)CC[C@]5(C)CC[C@@]4(C)[C@]3(C)CC[C@H]2C1(C)C | 
12 |  |  | 12% | CC(=O)O[C@H]1CC[C@]2(C)[C@H]3C(=O)C=C4[C@@H]5C[C@@](C)(C(=O)O)CC[C@]5(C)CC[C@@]4(C)[C@]3(C)CC[C@H]2C1(C)C | 
13 |  |  | 36% | CC(=O)N[C@H]1CC[C@]2(C)[C@H]3C(=O)C=C4[C@@H]5C[C@@](C)(C(=O)O)CC[C@]5(C)CC[C@@]4(C)[C@]3(C)CC[C@H]2C1(C)C | residual activity [6]: 0.2%
14 | 90% | 20% |  | CC(=O)O[C@H]1CC[C@]2(C)[C@H]3C(=O)C=C4[C@@H]5C[C@@](C)(NC(=O)NS(C)(=O)=O)CC[C@]5(C)CC[C@@]4(C)[C@]3(C)CC[C@H]2C1(C)C | 
15 | 102% | 93% |  | CC(=O)O[C@H]1CC[C@]2(C)[C@H]3C(=O)C=C4[C@@H]5C[C@@](C)(NC(=O)N(CCO)CCO)CC[C@]5(C)CC[C@@]4(C)[C@]3(C)CC[C@H]2C1(C)C | 
16 | 96% | 110% |  | CC(=O)O[C@H]1CC[C@]2(C)[C@H]3C(=O)C=C4[C@@H]5C[C@@](C)(NC(=O)N(C)O)CC[C@]5(C)CC[C@@]4(C)[C@]3(C)CC[C@H]2C1(C)C | 
